According to PubChem BioAssay (NCI):
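Tested at 5 concentrations; 48 h exposure; 96-well plates; endpoints linearly interpolated, else capped at highest concentration. GI50 marks 50% less growth. TGI: total growth inhibition.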

What was measured:
Assay in all cases: NCI tumour cell line growth inhibition, 48 h
786-0 renal = system: 786-0 renal
A498 renal = system: A498 renal
A549 NSCLC = system: A549 NSCLC
ACHN renal = system: ACHN renal
BT-549 breast = system: BT-549 breast
CAKI-1 renal = system: CAKI-1 renal
CCRF-CEM leukemia = system: CCRF-CEM leukemia
COLO 205 colon = system: COLO 205 colon
DU-145 prostate = system: DU-145 prostate
EKVX NSCLC = system: EKVX NSCLC
HCC-2998 colon = system: HCC-2998 colon
HCT-116 colon = system: HCT-116 colon
HCT-15 colon = system: HCT-15 colon
HL-60(TB) leukemia = system: HL-60(TB) leukemia
HOP-62 NSCLC = system: HOP-62 NSCLC
HOP-92 NSCLC = system: HOP-92 NSCLC
HS 578T breast = system: HS 578T breast
HT29 colon = system: HT29 colon
IGROV1 ovarian = system: IGROV1 ovarian
K-562 leukemia = system: K-562 leukemia
KM12 colon = system: KM12 colon
LOX IMVI melanoma = system: LOX IMVI melanoma
M14 melanoma = system: M14 melanoma
MALME-3M melanoma = system: MALME-3M melanoma
MCF7 breast = system: MCF7 breast
MDA-MB-231 breast = system: MDA-MB-231 breast
MDA-MB-435 = system: MDA-MB-435
MOLT-4 leukemia = system: MOLT-4 leukemia
NCI-H226 lung = system: NCI-H226 lung

Oc1ccc(-c2nnc(SCc3ccc(O)c4ncccc34)o2)cc1
GI50 (786-0 renal): 2640 nM | TGI (786-0 renal): 9550 nM | GI50 (A498 renal): 2370 nM | TGI (A498 renal): 7490 nM | GI50 (A549 NSCLC): 839 nM | TGI (A549 NSCLC): > 31100 nM | GI50 (ACHN renal): 1080 nM | TGI (ACHN renal): 10100 nM | GI50 (BT-549 breast): 444 nM | TGI (BT-549 breast): 21200 nM | GI50 (CAKI-1 renal): 2260 nM | TGI (CAKI-1 renal): 8840 nM | GI50 (CCRF-CEM leukemia): 833 nM | TGI (CCRF-CEM leukemia): > 100000 nM | GI50 (COLO 205 colon): 3060 nM | TGI (COLO 205 colon): 11400 nM | GI50 (DU-145 prostate): 582 nM | TGI (DU-145 prostate): 28900 nM | GI50 (EKVX NSCLC): 2630 nM | TGI (EKVX NSCLC): 11300 nM | GI50 (HCC-2998 colon): 3220 nM | TGI (HCC-2998 colon): > 68800 nM | GI50 (HCT-116 colon): 379 nM | TGI (HCT-116 colon): 26300 nM | GI50 (HCT-15 colon): 510 nM | TGI (HCT-15 colon): > 100000 nM | GI50 (HL-60(TB) leukemia): 1390 nM | TGI (HL-60(TB) leukemia): 6190 nM | GI50 (HOP-62 NSCLC): 543 nM | TGI (HOP-62 NSCLC): 7590 nM | GI50 (HOP-92 NSCLC): 219 nM | TGI (HOP-92 NSCLC): 747 nM | GI50 (HS 578T breast): 388 nM | TGI (HS 578T breast): > 22300 nM | GI50 (HT29 colon): 3570 nM | TGI (HT29 colon): > 100000 nM | GI50 (IGROV1 ovarian): 2230 nM | TGI (IGROV1 ovarian): 13200 nM | GI50 (K-562 leukemia): 418 nM | TGI (K-562 leukemia): > 100000 nM | GI50 (KM12 colon): 1560 nM | TGI (KM12 colon): > 100000 nM | GI50 (LOX IMVI melanoma): 406 nM | TGI (LOX IMVI melanoma): 11900 nM | GI50 (M14 melanoma): 544 nM | TGI (M14 melanoma): 3880 nM | GI50 (MALME-3M melanoma): 1960 nM | TGI (MALME-3M melanoma): 17600 nM | GI50 (MCF7 breast): 721 nM | TGI (MCF7 breast): > 100000 nM | GI50 (MDA-MB-231 breast): 1960 nM | TGI (MDA-MB-231 breast): 14700 nM | GI50 (MDA-MB-435): 418 nM | TGI (MDA-MB-435): > 100000 nM | GI50 (MOLT-4 leukemia): 1260 nM | TGI (MOLT-4 leukemia): > 100000 nM | GI50 (NCI-H226 lung): 3130 nM
